Data as given in patent US20240132431A1, “METHOD FOR ALKYLATING ACIDIC FUNCTIONAL GROUP” (Chugai Seiyaku Kabushiki Kaisha, priority 2021, published 2024).

Biological target: T1, Bcl-2 protein (Recombinant Human Bcl-2 Protein) (Homo sapiens, UniProt P10415)
T1 construct: purchased Novus NBP2-34889
Assay: Binding evaluation of mixture library compounds to Bcl-2 using AS-MS (affinity selection mass spectrometry)
Details: AS-MS, mixture of 1200 compounds, Bcl-2, ASMS Ratio(%)=(A−C)/B×100; for ASMS ratio (%) n = 1: replicate n = 1; for ASMS ratio (%) n = 2: replicate n = 2
Outline: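 Bcl-2 binding is scored from LC/MS signal retained with protein through gel-filtration spin columns, normalised to unfiltered and protein-free controls. Incubation: 20 μM protein, […] per compound, 1 h, 23° C.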

T1 sequence (P10415 whole entry): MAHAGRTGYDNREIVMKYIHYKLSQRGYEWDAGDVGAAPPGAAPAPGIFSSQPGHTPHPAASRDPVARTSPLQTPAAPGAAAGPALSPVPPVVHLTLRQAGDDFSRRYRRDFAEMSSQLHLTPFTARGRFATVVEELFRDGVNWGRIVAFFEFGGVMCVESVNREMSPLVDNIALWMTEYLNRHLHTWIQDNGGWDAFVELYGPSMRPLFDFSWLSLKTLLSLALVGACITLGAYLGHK

| SMILES | ASMS ratio (%) n = 1 [%] | ASMS ratio (%) n = 2 [%] |
| --- | --- | --- |
| CCOc1cncc(-c2ccc(C(=O)N3CCN(c4ccc(C(=O)NCC(F)(F)F)nn4)CC3)cc2F)c1 [B1K006-01, 6-[4-[4-(5-Ethoxypyridin-3-yl)-3-fluorobenzoyl]piperazin-1-yl]-N-(2,2,2-trifluoroethyl)pyridazine-3-carboxamide] | −0.6 | 0.0 |
| CCOc1cccc(C#Cc2ccccc2C(=O)N2CCN(c3ccc(C(=O)NCC(F)(F)F)nn3)CC2)c1 [B1K007-01, 6-[4-[2-[2-(3-Ethoxyphenyl)ethynyl]benzoyl]piperazin-1-yl]-N-(2,2,2-trifluoroethyl)pyridazine-3-carboxamide] | 0.0 | 1.3 |
| CCOc1cncc(C#Cc2ccccc2C(=O)N2CCN(c3ccc(C(=O)NCC(F)(F)F)nn3)CC2)c1 [B1K008-01, 6-[4-[2-[2-(5-Ethoxypyridin-3-yl)ethynyl]benzoyl]piperazin-1-yl]-N-(2,2,2-trifluoroethyl)pyridazine-3-carboxamide] | 0.0 | 0.0 |
| CCOc1cncc(C#Cc2cncc(C(=O)N3CCN(c4ccc(C(=O)NCC(F)(F)F)nn4)CC3)c2)c1 [B1K010-01, 6-[4-[5-[2-(5-Ethoxypyridin-3-yl)ethynyl]pyridine-3-carbonyl]piperazin-1-yl]-N-(2,2,2-trifluoroethyl)pyridazine-3-carboxamide] | 0.0 | 0.0 |
| CCOc1cccc(-c2ccccc2CCC(=O)N2CCN(c3ccc(C(=O)NCC(F)(F)F)nn3)CC2)c1 [B1K011-01, 6-[4-[3-[2-(3-Ethoxyphenyl)phenyl]propanoyl]piperazin-1-yl]-N-(2,2,2-trifluoroethyl)pyridazine-3-carboxamide] | −0.1 | 0.3 |
| CCOc1cncc(-c2ccccc2CCC(=O)N2CCN(c3ccc(C(=O)NCC(F)(F)F)nn3)CC2)c1 [B1K012-01, 6-[4-[3-[2-(5-Ethoxypyridin-3-yl)phenyl]propanoyl]piperazin-1-yl]-N-(2,2,2-trifluoroethyl)pyridazine-3-carboxamide] | 0.0 | −0.4 |
| CCOc1cccc(-c2cc(C(=O)N3CCN(c4ccc(C(=O)NCC(F)(F)F)nn4)CC3)cc(C(C)(C)C)c2)c1 [B1K015-01, 6-[4-[3-tert-Butyl-5-(3-ethoxyphenyl)benzoyl]piperazin-1-yl]-N-(2,2,2-trifluoroethyl)pyridazine-3-carboxamide] | 2.9 | −1.8 |
| CCOc1cncc(-c2cc(C(=O)N3CCN(c4ccc(C(=O)NCC(F)(F)F)nn4)CC3)cc(C(C)(C)C)c2)c1 [B1K016-01, 6-[4-[3-tert-Butyl-5-(5-ethoxypyridin-3-yl)benzoyl]piperazin-1-yl]-N-(2,2,2-trifluoroethyl)pyridazine-3-carboxamide] | 0.0 | 0.0 |
| CCOc1cccc(-c2cc(C(=O)N3CCN(c4ccc(C(=O)NCC(F)(F)F)nn4)CC3)cc(C(F)(F)F)c2)c1 [B1K017-01, 6-[4-[3-(3-Ethoxyphenyl)-5-(trifluoromethyl)benzoyl]piperazin-1-yl]-N-(2,2,2-trifluoroethyl)pyridazine-3-carboxamide] | 0.0 | 0.0 |
| CCOc1cncc(-c2cc(C(=O)N3CCN(c4ccc(C(=O)NCC(F)(F)F)nn4)CC3)cc(C(F)(F)F)c2)c1 [B1K018-01, 6-[4-[3-(5-Ethoxypyridin-3-yl)-5-(trifluoromethyl)benzoyl]piperazin-1-yl]-N-(2,2,2-trifluoroethyl)pyridazine-3-carboxamide] | −0.6 | 0.5 |
| CCOc1cccc(C#Cc2cc(C(=O)N3CCN(c4ccc(C(=O)NCC(F)(F)F)nn4)CC3)cc(C(F)(F)F)c2)c1 [B1K019-01, 6-[4-[3-[2-(3-Ethoxyphenyl)ethynyl]-5-(trifluoromethyl)benzoyl]piperazin-1-yl]-N-(2,2,2-trifluoroethyl)pyridazine-3-carboxamide] | 0.0 | 0.0 |
| CCOc1cncc(C#Cc2cc(C(=O)N3CCN(c4ccc(C(=O)NCC(F)(F)F)nn4)CC3)cc(C(F)(F)F)c2)c1 [B1K020-01, 6-[4-[3-[2-(5-Ethoxypyridin-3-yl)ethynyl]-5-(trifluoromethyl)benzoyl]piperazin-1-yl]-N-(2,2,2-trifluoroethyl)pyridazine-3-carboxamide] | 2.9 | −3.8 |
| CCOc1cccc(-c2cnn(-c3cc(C(=O)N4CCN(c5ccc(C(=O)NCC(F)(F)F)nn5)CC4)cc(C(F)(F)F)c3)c2)c1 [B1K021-01, 6-[4-[3-[4-(3-Ethoxyphenyl)pyrazol-1-yl]-5-(trifluoromethyl)benzoyl]piperazin-1-yl]-N-(2,2,2-trifluoroethyl)pyridazine-3-carboxamide] | −0.5 | −1.9 |
| CCOc1cncc(-c2cnn(-c3cc(C(=O)N4CCN(c5ccc(C(=O)NCC(F)(F)F)nn5)CC4)cc(C(F)(F)F)c3)c2)c1 [B1K022-01, 6-[4-[3-[4-(5-Ethoxypyridin-3-yl)pyrazol-1-yl]-5-(trifluoromethyl)benzoyl]piperazin-1-yl]-N-(2,2,2-trifluoroethyl)pyridazine-3-carboxamide] | 1.4 | 0.1 |
| CCOc1cncc(-c2csc(C(=O)N3CCN(c4ccc(C(=O)NCC(F)(F)F)cc4)CC3)c2)c1 [B1K024-01, 4-[4-[4-(5-Ethoxypyridin-3-yl)thiophene-2-carbonyl]piperazin-1-yl]-N-(2,2,2-trifluoroethyl)benzamide] | 0.0 | 0.0 |
| CCOc1cncc(-c2ccc(C(=O)N3CCN(c4ccc(C(=O)NCC(F)(F)F)cc4)CC3)cc2C)c1 [B1K026-01, 4-[4-[4-(5-Ethoxypyridin-3-yl)-3-methylbenzoyl]piperazin-1-yl]-N-(2,2,2-trifluoroethyl)benzamide] | 4.2 | 0.2 |
| CCOc1cccc(C#Cc2cncc(C(=O)N3CCN(c4ccc(C(=O)NCC(F)(F)F)cc4)CC3)c2)c1 [B1K031-01, 4-[4-[5-[2-(3-Ethoxyphenyl)ethynyl]pyridine-3-carbonyl]piperazin-1-yl]-N-(2,2,2-trifluoroethyl)benzamide] | 0.0 | 0.0 |
| CCOc1cncc(-c2ccccc2CCC(=O)N2CCN(c3ccc(C(=O)NCC(F)(F)F)cc3)CC2)c1 [B1K034-01, 4-[4-[3-[2-(5-Ethoxypyridin-3-yl)phenyl]propanoyl]piperazin-1-yl]-N-(2,2,2-trifluoroethyl)benzamide] | −0.3 | 0.0 |

Now from value to molecule:

| ASMS ratio (%) n = 1 [%] | ASMS ratio (%) n = 2 [%] | SMILES |
| --- | --- | --- |
| 0.0 | 1.4 | CCOc1cccc(-c2ccc(C(=O)N3CCN(c4ccc(C(=O)NCC(F)(F)F)nn4)CC3)c3ccccc23)c1 [B1K013-01, 6-[4-[4-(3-Ethoxyphenyl)naphthalene-1-carbonyl]piperazin-1-yl]-N-(2,2,2-trifluoroethyl)pyridazine-3-carboxamide] |
| −0.3 | 0.0 | CCOc1cncc(-c2ccc(C(=O)N3CCN(c4ccc(C(=O)NCC(F)(F)F)nn4)CC3)c3ccccc23)c1 [B1K014-01, 6-[4-[4-(5-Ethoxypyridin-3-yl)naphthalene-1-carbonyl]piperazin-1-yl]-N-(2,2,2-trifluoroethyl)pyridazine-3-carboxamide] |
| 4.3 | 1.3 | CCOc1cccc(-c2csc(C(=O)N3CCN(c4ccc(C(=O)NCC(F)(F)F)cc4)CC3)c2)c1 [B1K023-01, 4-[4-[4-(3-Ethoxyphenyl)thiophene-2-carbonyl]piperazin-1-yl]-N-(2,2,2-trifluoroethyl)benzamide] |
| 0.3 | −0.8 | CCOc1cccc(-c2ccc(C(=O)N3CCN(c4ccc(C(=O)NCC(F)(F)F)cc4)CC3)cc2C)c1 [B1K025-01, 4-[4-[4-(3-Ethoxyphenyl)-3-methylbenzoyl]piperazin-1-yl]-N-(2,2,2-trifluoroethyl)benzamide] |
| −0.8 | −3.6 | CCOc1cccc(-c2ccc(C(=O)N3CCN(c4ccc(C(=O)NCC(F)(F)F)cc4)CC3)cc2F)c1 [B1K027-01, 4-[4-[4-(3-Ethoxyphenyl)-3-fluorobenzoyl]piperazin-1-yl]-N-(2,2,2-trifluoroethyl)benzamide] |
| 0.0 | 0.0 | CCOc1cncc(-c2ccc(C(=O)N3CCN(c4ccc(C(=O)NCC(F)(F)F)cc4)CC3)cc2F)c1 [B1K028-01, 4-[4-[4-(5-Ethoxypyridin-3-yl)-3-fluorobenzoyl]piperazin-1-yl]-N-(2,2,2-trifluoroethyl)benzamide] |
| 0.0 | 0.9 | CCOc1cncc(C#Cc2ccccc2C(=O)N2CCN(c3ccc(C(=O)NCC(F)(F)F)cc3)CC2)c1 [B1K030-01, 4-[4-[2-[2-(5-Ethoxypyridin-3-yl)ethynyl]benzoyl]piperazin-1-yl]-N-(2,2,2-trifluoroethyl)benzamide] |
| 2.3 | −0.6 | CCOc1cccc(-c2ccccc2CCC(=O)N2CCN(c3ccc(C(=O)NCC(F)(F)F)cc3)CC2)c1 [B1K033-01, 4-[4-[3-[2-(3-Ethoxyphenyl)phenyl]propanoyl]piperazin-1-yl]-N-(2,2,2-trifluoroethyl)benzamide] |
| 4.8 | 4.5 | CCOc1cccc(-c2ccc(C(=O)N3CCN(c4ccc(C(=O)NCC(F)(F)F)cc4)CC3)c3ccccc23)c1 [B1K035-01, 4-[4-[4-(3-Ethoxyphenyl)naphthalene-1-carbonyl]piperazin-1-yl]-N-(2,2,2-trifluoroethyl)benzamide] |
